Data on 14 compounds can be found in ChEMBL document CHEMBL2057130, “Bruton's tyrosine kinase inhibitors: approaches to potent and selective inhibition, preclinical and clinical evaluation for inflammatory diseases and B cell malignancies” (J Med Chem, 2012).

The subject of one series is Splenocyte. The series can be described thus: Inhibition of mouse B-cell splenocyte activation by cell proliferation assay. The class given is functional, cell-based.
For series [1], the target named is T1, Tyrosine-protein kinase BTK (Homo sapiens, UniProt Q06187).
T1 sequence (Q06187 whole entry): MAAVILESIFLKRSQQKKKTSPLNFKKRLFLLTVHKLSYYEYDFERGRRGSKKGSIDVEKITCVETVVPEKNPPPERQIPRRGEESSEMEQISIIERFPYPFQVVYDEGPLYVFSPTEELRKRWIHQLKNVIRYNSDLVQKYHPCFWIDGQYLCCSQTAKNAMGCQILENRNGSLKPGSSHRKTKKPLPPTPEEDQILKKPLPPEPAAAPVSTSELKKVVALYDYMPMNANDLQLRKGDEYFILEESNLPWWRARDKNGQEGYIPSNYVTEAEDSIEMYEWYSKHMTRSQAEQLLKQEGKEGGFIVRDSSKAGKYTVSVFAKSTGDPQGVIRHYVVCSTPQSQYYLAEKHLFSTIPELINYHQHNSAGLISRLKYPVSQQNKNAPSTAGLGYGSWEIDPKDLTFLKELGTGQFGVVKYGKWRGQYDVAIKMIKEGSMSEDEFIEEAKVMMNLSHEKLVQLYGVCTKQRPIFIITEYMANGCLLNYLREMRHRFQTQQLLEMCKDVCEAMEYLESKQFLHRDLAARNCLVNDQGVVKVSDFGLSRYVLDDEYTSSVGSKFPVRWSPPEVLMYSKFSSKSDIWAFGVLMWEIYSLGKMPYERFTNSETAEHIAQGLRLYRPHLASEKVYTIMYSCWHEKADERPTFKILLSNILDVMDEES
Description: Inhibition of human BTK by enzymatic assay
Series [2] is described as follows: Clearance in po dosed rat. The class given is ADME, organism-based. The conditions noted are these: in vivo.
In series [3] the test system is Blood. The series can be described thus: Inhibition of CD63 expression in human whole blood. The class given is functional, tissue-based.
The nature of series [4]: Inhibition of anti-IgM-induced human B cell proliferation. The class given is functional, cell-based.
Series [5] has as its system Macrophage. Nature of the series: cells.
Description: (§1) Inhibition of immobilized immune complex-stimulated TNFalpha production in macrophages
Series [6] can be described thus: Oral bioavailability in dosed rat. It is filed as ADME, organism-based. The following applies: in vivo.
Series [7] has as its system Mus musculus. The series can be described thus: Antiarthritic effect in mouse CIA model assessed as inhibition of clinical arthritis scores dosed prophylactically through subcutaneous route. It is filed as functional.
Series [8] deals with T1, Tyrosine-protein kinase BTK. Nature of the series: Inhibition of BTK in human Ramos cells by FLIPR assay. The class given is cell-based.
The subject of the next series is Rattus norvegicus. The series can be described thus: Inhibition of hypersensitive immune responses in rat passive cutaneous anaphylaxis model at 30 mg/kg. It is filed as functional.
Series [9] relates to Blood. The series can be described thus: Inhibition of IgM-stimulated CD69 expression in human whole blood. It is filed as functional, tissue-based.
For series [10], the system named is Mus musculus. The series can be described thus: Inhibition of anti-IgD antibody stimulated CD69 expression in mouse CIA model dosed prophylactically at 3 to 100 mg/kg, po measured 24 hrs post dose. The class given is functional. The conditions noted are these: dose mg/kg 3-100.
In series [11] the test system is Macrophage.
Description: as §1

By IC50 is commonly meant the concentration that inhibits the measured activity by half. One may read the CL/F as the apparent clearance, not corrected for the fraction that reaches the circulation. A word on the EC50: it is the midpoint of the concentration-response curve. A low value points to a more potent agent. By bioavailability is commonly meant the share of a dose that reaches the circulation, judged against a reference dose that is usually intravenous. By inhibition in vivo is commonly meant the relative decrease from the control value, in per cent. A low value points to little suppression.

Description for Mast cell: Inhibition of IgE-Fce cross-linking induced histamine release in mast cells

On to `C=CC(=O)N1CCCC(c2c(Cl)c(-c3ccc(Oc4ccc(Cl)c(Cl)c4)c(OC)c3)c3c(N)ncnn23)C1` (stereo not given), for which it took 130 nM to reach half-maximal inhibition in the series on Splenocyte (IC50). This counts as sub-micromolar.
As for `Cc1c(NC(=O)c2ccc(N(C)C)cc2)cccc1-c1nc(Nc2ccc(C(=O)N3CCOCC3)cc2)c2nccn2n1`, the results for the concentration for half-maximal inhibition (IC50) (in [1]; in the series on Splenocyte) were 144 nM and 142 nM, respectively.
On to `Cc1c(NC(=O)c2ccc(C(C)(C)C)cc2)cccc1-c1cn(C)c(=O)c(Nc2ccc(C(=O)N3CCOCC3)cc2)n1`, for which, in series [2], the CL/F worked out at 86 mL/min/kg. Further, the EC50 in the series on Blood [3] was 1200 nM. Moreover, the IC50 in [4] was found to be 42 nM; in the series with Macrophage [5], 25 nM. The bioavailability in series [6] was below 1%. Moreover, the “inhibition (INH)” value in the series on Mus musculus [7] is reported as above 97%.
`O=C(CNc1ccccc1S(=O)(=O)N1CCCCC1)N[C@@H]1CCCN(c2ncnc3[nH]ccc23)C1` displayed an IC50 in series [1] below 100 nM.
Still for that read-out and setting: under `CC(C)(C)c1ccc(C(=O)Nc2cccc(-c3cn4ccnc4c(Nc4ccccc4)n3)c2)cc1` stands 400 nM.
On the same count and under the same terms, under `O=C(N[C@@H]1CCCN(c2ncnc3[nH]ccc23)C1)[C@H](Nc1ccccc1)C1CC1` stands below 100 nM.
In turn, `Cc1c(-c2ccc(C(N)=O)c3[nH]c4cc(C(O)CO)ccc4c23)cccc1-n1cnc2ccc(F)cc2c1=O` (stereo not given) registered an IC50 in series [8] of 11 nM. This lies in the double-digit nanomolar range.
In the series on Rattus norvegicus, `CN1CCC(=C2c3ccccc3C=Cc3ccccc32)CC1` [CYPROHEPTADINE] had an inhibition in vivo at 30 mg/kg of 69%.
The compound `CN1CCN(c2ccc(Nc3cc(-c4cccc(N5CCOc6cc(C(C)(C)C)ccc6C5=O)c4CO)cn(C)c3=O)nc2)CC1` displayed an IC50 in the series with Blood [9] (Homo sapiens, Blood) of 4 nM.
In the case of `CC(C)(C)c1ccc(C(=O)N[C@@H]2CCCN(c3nc(Nc4ccc(C(=O)N5CCNCC5)cc4)c4nccn4n3)C2)cc1`, the midpoint of inhibition in the series with Splenocyte, the IC50, lay at 56 nM.
Turning to `CN1CCN(c2ccc(Nc3cc(-c4cccc(-n5ccc6cc(C7CC7)cc(F)c6c5=O)c4CO)cn(C)c3=O)nc2)CC1`, the “inhibition (INH)” value with Mus musculus [10] is 50%. In addition, the values for the IC50 in the series on Macrophage [11], in the series with Mast cell and with Blood [9] were 4 nM, 29.2 nM and 17 nM, respectively. Further, the inhibition in vivo at 30 mg/kg with Rattus norvegicus stood at 91%.
In series [1], `Nc1ncnc2c1c(-c1ccc(Oc3ccccc3)cc1)nn2C1CCCC1` showed a half-maximal inhibitory concentration (IC50) of 8.2 nM.
In the series on Splenocyte, `Cc1ccccc1Nc1nc2cc(F)c(N(C)C(=O)/C=C/CN(C)C)cc2n2cncc12` yielded an IC50 of 3.41 nM.
For `Cc1c(NC(=O)c2ccc(N(C)C)cc2)cccc1-c1nc(Nc2ccc(C(=O)N3CCOCC3)cc2)c2ncc(N)n2n1`, the IC50 in [1] turned out to be 30 nM; in the series with Splenocyte it was 32 nM.
